Assay type in all cases: biochemical
The target in one assay is T1, recombinant human VAP-1 (Homo sapiens, UniProt Q16853).
T1 construct: purchased R&D systems
T1 sequence (Q16853 1-763): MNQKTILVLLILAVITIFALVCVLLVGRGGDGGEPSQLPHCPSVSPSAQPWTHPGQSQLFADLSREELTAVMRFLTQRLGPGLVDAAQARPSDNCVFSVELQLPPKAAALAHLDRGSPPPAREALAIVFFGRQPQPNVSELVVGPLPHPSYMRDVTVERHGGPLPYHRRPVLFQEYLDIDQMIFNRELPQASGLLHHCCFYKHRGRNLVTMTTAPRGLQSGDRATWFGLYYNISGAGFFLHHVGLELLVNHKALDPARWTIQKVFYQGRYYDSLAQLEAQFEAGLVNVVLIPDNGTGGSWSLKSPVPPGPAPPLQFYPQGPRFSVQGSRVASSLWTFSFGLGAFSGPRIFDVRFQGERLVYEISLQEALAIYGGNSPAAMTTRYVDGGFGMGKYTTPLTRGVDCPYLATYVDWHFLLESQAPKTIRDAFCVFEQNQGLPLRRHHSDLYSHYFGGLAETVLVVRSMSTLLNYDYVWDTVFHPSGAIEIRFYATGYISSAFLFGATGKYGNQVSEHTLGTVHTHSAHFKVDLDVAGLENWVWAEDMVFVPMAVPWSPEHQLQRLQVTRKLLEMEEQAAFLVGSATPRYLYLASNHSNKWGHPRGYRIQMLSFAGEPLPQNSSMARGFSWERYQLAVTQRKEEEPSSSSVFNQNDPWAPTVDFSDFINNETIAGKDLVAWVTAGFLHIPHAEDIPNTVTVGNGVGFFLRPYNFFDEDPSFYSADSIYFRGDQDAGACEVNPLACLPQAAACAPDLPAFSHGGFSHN
In words: Activity on recombinant human VAP-1, HRP-coupled Amplex Red hydrogen peroxide assay. The conditions noted are these: substrate 1 mM benzylamine; compound incubated with enzyme at 37° C. for 30 minutes; pH 7.4; read-out: Inhibitory Activity (IC50, nM) human VAP-1. The method in brief: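 Enzyme in 50 mM sodium phosphate (pH 7.4) is exposed to test compound for 30 min at 37 °C. Benzylamine (1 mM) with HRP and Amplex Red then starts the reaction, and the fluorescence rate, relative to a DMSO-only control, gives IC50.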

Assay [1] addresses T2, recombinant human MAO-A (monoamine oxidase-A) (Homo sapiens, UniProt P21397).
T2 construct: purchased Sigma-Aldrich
T2 sequence (P21397 1-527): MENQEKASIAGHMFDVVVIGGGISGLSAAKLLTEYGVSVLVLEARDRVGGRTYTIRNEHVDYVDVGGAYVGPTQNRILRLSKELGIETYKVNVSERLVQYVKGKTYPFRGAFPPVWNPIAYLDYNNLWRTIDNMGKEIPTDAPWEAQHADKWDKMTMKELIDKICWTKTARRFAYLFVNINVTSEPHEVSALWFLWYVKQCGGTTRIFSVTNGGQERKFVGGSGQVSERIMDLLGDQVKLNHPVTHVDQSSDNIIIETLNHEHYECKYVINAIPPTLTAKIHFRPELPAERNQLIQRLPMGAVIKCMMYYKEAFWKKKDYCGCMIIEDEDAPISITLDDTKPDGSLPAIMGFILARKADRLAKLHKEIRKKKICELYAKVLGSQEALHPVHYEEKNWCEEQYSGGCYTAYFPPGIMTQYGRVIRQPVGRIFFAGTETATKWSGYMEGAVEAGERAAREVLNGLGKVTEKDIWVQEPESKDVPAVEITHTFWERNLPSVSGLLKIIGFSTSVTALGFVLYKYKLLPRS
Nature of the assay: Activity on recombinant human MAO-A, method similar to the VAP-1 assay. The conditions noted are these: substrate 0.5 mM tyramine; read-out: Inhibitory Activity (IC50, nM) MAO-A. The method in brief:
(§1)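 Enzyme in pH 7.4 phosphate buffer; 30 min, 37° C with compound (DMSO <1%); start with 200 uM Amplex Red + 1 U/mL HRP + tyramine 0.5 mM (MAO-A) or benzylamine 1 mM (MAO-B); kinetic read ex 544/em 590, 1-2 h; % rate decrease vs DMSO control → IC50, 4-parameter fit.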

Assay [2] deals with T3, recombinant human MAO-B (monoamine oxidase-B) (Homo sapiens, UniProt P27338).
T3 construct: purchased Sigma-Aldrich
T3 sequence (P27338 1-520): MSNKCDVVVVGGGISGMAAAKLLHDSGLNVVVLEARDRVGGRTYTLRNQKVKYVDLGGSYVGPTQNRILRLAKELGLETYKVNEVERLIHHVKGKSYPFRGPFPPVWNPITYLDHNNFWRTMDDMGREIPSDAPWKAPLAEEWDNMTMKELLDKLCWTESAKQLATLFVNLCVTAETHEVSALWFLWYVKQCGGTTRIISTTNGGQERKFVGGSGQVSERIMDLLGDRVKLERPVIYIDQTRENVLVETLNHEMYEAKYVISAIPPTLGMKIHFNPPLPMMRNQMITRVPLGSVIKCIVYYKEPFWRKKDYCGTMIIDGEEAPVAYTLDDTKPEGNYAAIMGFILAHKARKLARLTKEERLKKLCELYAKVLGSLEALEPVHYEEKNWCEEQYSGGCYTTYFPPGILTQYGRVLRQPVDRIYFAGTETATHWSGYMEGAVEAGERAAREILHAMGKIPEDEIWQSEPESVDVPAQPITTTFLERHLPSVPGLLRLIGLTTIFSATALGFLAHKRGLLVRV
In words: Activity on recombinant human MAO-B, method similar to the VAP-1 assay. Conditions: substrate 1 mM benzylamine; read-out: Inhibitory Activity (IC50, nM) MAO-B. An outline of the steps:
as §1

Assay [3] deals with T4, recombinant human DAO (diamine oxidase) (Homo sapiens, UniProt P19801).
T4 construct: purchased R&D systems
T4 sequence (P19801 20-751): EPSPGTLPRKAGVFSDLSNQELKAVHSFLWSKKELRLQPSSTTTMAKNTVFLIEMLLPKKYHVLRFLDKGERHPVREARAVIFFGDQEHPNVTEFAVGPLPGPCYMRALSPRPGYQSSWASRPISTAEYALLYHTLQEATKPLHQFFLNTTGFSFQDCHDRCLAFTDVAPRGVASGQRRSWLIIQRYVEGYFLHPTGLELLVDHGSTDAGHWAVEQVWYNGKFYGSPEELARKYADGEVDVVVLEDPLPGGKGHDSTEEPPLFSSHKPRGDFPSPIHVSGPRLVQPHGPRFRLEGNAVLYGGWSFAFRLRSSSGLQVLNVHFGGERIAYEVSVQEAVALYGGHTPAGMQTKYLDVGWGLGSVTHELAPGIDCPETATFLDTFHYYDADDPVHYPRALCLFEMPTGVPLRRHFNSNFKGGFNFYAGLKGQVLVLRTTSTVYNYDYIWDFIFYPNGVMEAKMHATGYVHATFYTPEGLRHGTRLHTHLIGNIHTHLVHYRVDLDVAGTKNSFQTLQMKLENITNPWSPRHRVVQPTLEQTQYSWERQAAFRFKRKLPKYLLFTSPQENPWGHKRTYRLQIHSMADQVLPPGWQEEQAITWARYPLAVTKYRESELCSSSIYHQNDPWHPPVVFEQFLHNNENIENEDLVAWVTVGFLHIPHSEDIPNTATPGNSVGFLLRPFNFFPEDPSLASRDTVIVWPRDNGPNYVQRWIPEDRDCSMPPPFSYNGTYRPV
In words: Activity on recombinant human DAO, method similar to the VAP-1 assay. The conditions noted are these: substrate 1 mM putrescine; read-out: Inhibitory Activity (IC50, nM) DAO. The method in brief:
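Inhibition of recombinant human diamine oxidase (DAO, R&D systems) was assessed by the same approach as the VAP-1 assay, using 1 mM putrescine as substrate. Hydrogen peroxide formed was detected through an HRP-coupled Amplex Red reaction yielding fluorescent resorufin, read at 544 nm excitation and 590 nm emission. IC50 values came from four-parameter logistic fitting in GraphPad Prism.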

As usually defined, the IC50 is the concentration needed to halve the response being measured.

Where a name gives a salt, the structure may show the parent alone.

With `NC/C(=C\F)Cn1ncn(Cc2ccc(C#Cc3ccc4c(c3)NCCO4)s2)c1=O` [Example 134, 2-[(E)-2-(aminomethyl)-3-fluoro-allyl]-4-[[5-[2-(3,4-dihydro-2H-1,4-benzoxazin-6-yl)ethynyl]-2-thienyl]methyl]-1,2,4-triazol-3-one], the IC50 turned out to be 2 nM on recombinant human VAP-1, 7100 nM in assay [1], 300 nM in assay [2] and 2100 nM in assay [3].
For the compound `CNC(=O)c1ccc(-c2ccc(Cn3cnn(C/C(=C/F)CN)c3=O)s2)cc1` [Example 176, 4-[5-({1-[(2E)-2-(aminomethyl)-3-fluoroprop-2-en-1-yl]-5-oxo-1,5-dihydro-4H-1,2,4-triazol-4-yl}methyl)thiophen-2-yl]-N-methylbenzamide], the IC50 on recombinant human VAP-1 was 1.5 nM; in assay [1], above 100000 nM; in assay [2], 1900 nM; in assay [3], 1100 nM.
For `NC/C(=C\F)Cn1ncn(Cc2ccc(-c3cc4c(cc3F)OCCN4)s2)c1=O` [Example 107, 2-[(E)-2-(aminomethyl)-3-fluoro-allyl]-4-[[5-(7-fluoro-3,4-dihydro-2H-1,4-benzoxazin-6-yl)-2-thienyl]methyl]-1,2,4-triazol-3-one] the same measures were 1.5 nM, 18000 nM, 320 nM and 960 nM.
With `CN1CCNc2cc(-c3ccc(Cn4cnn(C/C(=C/F)CN)c4=O)s3)ccc21` [Example 104, 2-[(E)-2-(aminomethyl)-3-fluoro-allyl]-4-[[5-(1-methyl-3,4-dihydro-2H-quinoxalin-6-yl)-2-thienyl]methyl]-1,2,4-triazol-3-one], the IC50 stood at 1.1 nM at recombinant human VAP-1, 4000 nM in assay [1], 1200 nM in assay [2] and 390 nM in assay [3].
For `NC/C(=C\F)Cn1ncn(Cc2ccc(-c3ccc(OCC(F)(F)F)nc3)s2)c1=O` [Example 47, 2-[(2E)-2-(aminomethyl)-3-fluoroprop-2-en-1-yl]-4-(5-[6-(2,2,2-trifluoroethoxy)pyridin-3-yl]thiophen-2-ylmethyl)-2,4-dihydro-3H-1,2,4-triazol-3-one hydrochloride] the same measures were 4.7 nM, above 100000 nM, 980 nM and 530 nM.
`NC/C(=C\F)Cn1ncn(Cc2ccc(-c3cc(F)c4c(c3)NC(=O)CO4)s2)c1=O` [Example 94, 6-[5-[[1-[(E)-2-(aminomethyl)-3-fluoro-allyl]-5-oxo-1,2,4-triazol-4-yl]methyl]-2-thienyl]-8-fluoro-4H-1,4-benzoxazin-3-one hydrochloride]: the IC50 at recombinant human VAP-1 amounted to 0.3 nM; in assay [1] it was 11000 nM; in assay [2], 1700 nM; in assay [3], 160 nM.
For `NC/C(=C\F)Cn1ncn(Cc2ccc(/C=C/c3cnc4c(c3)NC(=O)CO4)s2)c1=O` [Example 124, 7-[(E)-2-[5-[[1-[(E)-2-(aminomethyl)-3-fluoro-allyl]-5-oxo-1,2,4-triazol-4-yl]methyl]-2-thienyl]vinyl]-1H-pyrido[2,3-b][1,4]oxazin-2-one hydrochloride] the same measures were 0.1 nM, above 100000 nM, 5100 nM and 270 nM.
As to `Cn1nc(C(F)(F)F)cc1-c1ccc(Cn2cnn(C/C(=C/F)CN)c2=O)s1` [Example 162, 2-[(2E)-2-(aminomethyl)-3-fluoroprop-2-en-1-yl]-4-({5-[1-methyl-3-(trifluoromethyl)-1H-pyrazol-5-yl]thiophen-2-yl}methyl)-2,4-dihydro-3H-1,2,4-triazol-3-one], the half-maximal inhibitory concentration (IC50) at recombinant human VAP-1 was 3.2 nM; in assay [1], above 100000 nM; in assay [2], 250 nM; in assay [3], 250 nM.

(Values after US11780830B2, “Triazolone derivatives or salts thereof and pharmaceutical compositions comprising the same” (YUHAN CORPORATION, priority 2018, dated 2023).)
